Test results: ChEMBL document CHEMBL1201862, “PubChem BioAssay data set” (2004)
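Protocol summary: plate cells (96-well), add compound at 5 concentrations, incubate 48 h, interpolate endpoints linearly. GI50 marks 50% less growth.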 Active and inactive are the calls of the source. Rule as the data show it: active = GI50 up to about 1.1 µM and inactive = higher.

Assays:
Test in all cases: growth of human tumour cells (NCI), 48 h
[1] = test system: M19-MEL
[2] = test system: DMS-273
[3] = test system: SNB-78
[4] = test system: RXF 631
[5] = test system: DLD-1
[6] = test system: HOP-18
[7] = test system: LXFL 529
[8] = test system: XF498

Measured: GI50

O=C(O)CCC(N/C=C1/N=C(c2ccccc2)OC1=O)C(=O)O (configuration not stated)
inactive: [1] > 100 µM | [2] > 100 µM | [3] > 100 µM | [4] > 100 µM | [5] > 100 µM | [6] 36.1 µM | [7] > 100 µM

Cn1c(N)nc(=O)c2c1N(C1OC(CO)C(O)C1O)CN2Cc1ccccc1 (configuration not stated)
inactive: [1] > 100 µM | [2] > 100 µM | [3] > 100 µM | [4] > 100 µM | [8] > 100 µM | [5] > 100 µM | [6] > 100 µM | [7] > 100 µM

C=CCn1c(=O)c(C(=O)NC(=O)OCC)cn(C2CCCCC2)c1=O
inactive: [2] > 100 µM | [3] > 100 µM | [4] > 100 µM | [8] > 100 µM | [5] > 100 µM | [6] > 100 µM | [7] > 100 µM

O=C1c2ccccc2C(=O)N1/N=C\c1ccc(Br)cc1
inactive: [1] > 10 µM | [2] > 10 µM | [3] > 10 µM | [4] > 10 µM | [8] > 10 µM | [5] > 10 µM | [6] > 10 µM | [7] > 10 µM

CCCCCCCCCCC(=O)CC(=O)c1c(O)cccc1O
inactive: [1] 25.8 µM | [2] 23.8 µM | [3] 33.5 µM | [4] 47.3 µM | [8] 19.5 µM | [5] 44.6 µM | [6] 18.9 µM | [7] 36.3 µM

CSC(=S)c1ccc(C(=S)SC)cc1
inactive: [1] > 100 µM | [2] > 100 µM | [3] > 100 µM | [4] > 100 µM | [8] > 100 µM | [5] > 100 µM | [6] > 100 µM | [7] > 100 µM

COc1ccc(/C(Cl)=C(\C=O)c2ccc([N+](=O)[O-])cc2)cc1OC
inactive: [1] 11 µM | [2] 11.8 µM | [3] 4.3 µM | [4] 12.4 µM | [8] 7.4 µM | [6] 10.5 µM | [7] 3.23 µM

Cc1ccccc1/C=N/C12CC3CC(CC(C3)C1)C2
inactive: [1] > 100 µM | [2] > 100 µM | [3] > 100 µM | [4] > 100 µM | [5] > 100 µM | [6] > 100 µM | [7] > 100 µM

COc1ccc(Cc2c(=O)[nH]nc3ccccc23)cc1
inactive: [1] > 100 µM | [2] > 100 µM | [3] > 100 µM | [4] > 100 µM | [8] 33 µM | [5] > 100 µM | [6] > 100 µM
